From patent publication US20250248975 come the findings set out here.

Where two headings read alike, the source gives them in different places.

`Cn1nc2nc1-c1cc(ccn1)Oc1c(F)cc3[nH]ccc3c1Cn1cc(nn1)C(C)(C)CCCC[C@]2(C)c1cccc(I)c1` had a ring closure, isolated yield (triazole bond, 19-membered ring, 4 steps) of 22.1%.

`COC(=O)/C=C/c1cccc(C2(C)CCCC#Cc3nc(cs3)Cc3c(c(F)cc4c3ccn4S(=O)(=O)c3ccc(C)cc3)Oc3ccc(F)c(c3)-c3ncc2[nH]3)c1` (centres unmarked) had a ring closure, isolated yield (from C#CCCCC(C)(c1cccc(/C=C/C(=O)OC)c1)c1cnc(-c2cc(Oc3c(F)cc4c(ccn4S(=O)(=O)c4ccc(C)cc4)c3Cc3csc(I)n3)ccc2F)[nH]1, cc_pd bond, 19-membered ring, PdCl2(PPh3)2/CuI/TEA, DMF, 10.6 mM, 60.0 °C) of 15%.

`CCOC(=O)CCc1cccc(C2CC/C=C/CC(C)(C)c3cnn(c3)Cc3c(c(F)cc4c3ccn4S(=O)(=O)c3ccc(C)cc3)Oc3ccc(F)c(c3)-c3ccn2n3)c1` (centres unmarked) had a ring closure, isolated yield (from C=CCCC(c1cccc(CCC(=O)OCC)c1)n1ccc(-c2cc(Oc3c(F)cc4c(ccn4S(=O)(=O)c4ccc(C)cc4)c3Cn3cc(C(C)(C)CC=C)cn3)ccc2F)n1, rcm bond, 20-membered ring, Hoveyda-Grubbs II, toluene, 1.26 mM, 60.0 °C, 12.0 h) of 66%.

In turn, `CCOC(=O)C(C)Cc1cccc(C2(C)CCC(C)(C)COc3cn(nn3)Cc3c(c(F)cc4c3ccn4S(=O)(=O)c3ccccc3)Oc3ccc(F)c(c3)-c3nc2nn3C)c1` (centres unmarked) showed a ring closure, isolated yield (from CCOC(=O)C(C)Cc1cccc(C(C)(CCC(C)(C)CO)c2nc(-c3cc(Oc4c(F)cc5c(ccn5S(=O)(=O)c5ccccc5)c4Cn4cc(O)nn4)ccc3F)n(C)n2)c1, ether bond, 19-membered ring, CMBP, toluene, 11.3 mM, 150.0 °C, 1.0 h) of 50%.

`Cc1ccc(S(=O)(=O)n2ccc3c4c(c(F)cc32)Sc2ccc(F)c(c2)-c2ccn(n2)C(c2cccc(Br)c2)CCOCC(C)(C)c2cn(nn2)C4)cc1` (centres unmarked) registered a ring closure, isolated yield (from C#CC(C)(C)COCCC(c1cccc(Br)c1)n1ccc(-c2cc(Sc3c(F)cc4c(ccn4S(=O)(=O)c4ccc(C)cc4)c3CN=[N+]=[N-])ccc2F)n1, triazole bond, 19-membered ring, Cu(MeCN)4BF4 (0.1 eq)/TBTA (0.1 eq), DCM, 43.4 mM, 45.0 °C) of 61%.

In turn, “Mixture of 21-(benzenesulfonyl)-6-(3-bromophenyl)-24,30-difluoro-10,10-dimethyl-9,26-dioxa-5,12,13,21,33-pentazahexacyclo[25.3.1.12,5.112,15.017,25.018,22]tritriaconta-1(31),2(33),3,13,15(32),17,19,22,24,27,29-undecaene and 22-(benzenesulfonyl)-7-(3-bromophenyl)-25,31-difluoro-11,11-dimethyl-10,27-dioxa-5,6,13,14,22-pentazahexacyclo[26.3.1.113,16.02,6.018,26.019,23]tritriaconta-1(32),2,4,14,16(33),18,20,23,25,28,30-undecaene” gave a ring closure, isolated yield (other bond, 19-membered ring, CMBP, 1,4-dioxane, 24.7 mM, 145.0 °C) of 55%.

`Cn1nc2nc1-c1cc(ccc1F)Sc1c(F)cc3c(ccn3S(=O)(=O)c3ccccc3)c1Cn1cc(cn1)C(C)(C)C/C=C\CC2(C)c1cccc(Br)c1` (centres unmarked) yielded a ring closure, isolated yield (rcm bond, 19-membered ring) of 79%.

Regarding `CC1(c2cccc(I)c2)CCCC(O)CNC(=O)/C=C/c2c(c(F)cc3[nH]ccc23)Oc2ccc(F)c(c2)-c2ncc1[nH]2` (centres unmarked), where the note is “from CC(CCCC(O)CN)(c1cccc(I)c1)c1cnc(-c2cc(Oc3c(F)cc4[nH]ccc4c3/C=C/C(=O)O)ccc2F)[nH]1, amide bond, 19-membered ring, EDC.HCl/HOBt, THF/DMF 10:1, 102.0 mM, 18.0 h”, the ring closure, isolated yield turned out to be 40%.

`CCOC(=O)C(C)Cc1cccc(C2(C)CCC(C)(C)COc3ccn(n3)Cc3c(c(F)cc4c3ccn4S(=O)(=O)c3ccccc3)Oc3ccc(F)c(c3)-c3nc2nn3C)c1` (single isomer, unassigned; isomer 2) registered a ring closure, isolated yield (from CCOC(=O)C(C)Cc1cccc(C(C)(CCC(C)(C)COc2cc[nH]n2)c2nc(-c3cc(Oc4c(F)cc5c(ccn5S(=O)(=O)c5ccccc5)c4CO)ccc3F)n(C)n2)c1, other bond, 18-membered ring, CMBP, toluene, 13.6 mM, 150.0 °C, 1.0 h) of 21%.

In turn, `Cn1nc2nc1-c1cc(ccc1F)Oc1c(F)cc3c(ccn3S(=O)(=O)c3ccccc3)c1Cn1cc(cn1)C(C)(C)C/C=C\CC2(C)c1cccc(Br)c1` (centres unmarked) had a ring closure, isolated yield (rcm bond, 19-membered ring, Grubbs II, toluene, 100.0 °C) of 62%.

Turning to `Cn1cc2nc1-c1cccc(c1)Oc1c(F)cc3[nH]ccc3c1Cn1cc(nn1)C(C)(C)OCCCC2(C)c1cccc(Br)c1` (centres unmarked), where the note is “from C#CC(C)(C)OCCCC(C)(c1cccc(Br)c1)c1cn(C)c(-c2cccc(Oc3c(F)cc4[nH]ccc4c3CN=[N+]=[N-])c2)n1, triazole bond, 19-membered ring, Cu(MeCN)4BF4/TBTA, DCM, 3.2 mM, 45.0 °C”, the ring closure, isolated yield turned out to be 60%.

Take `Cc1ccc(S(=O)(=O)n2ccc3c4c(c(F)cc32)Sc2cccc(c2)-c2ccn(n2)C(c2cccc(Br)c2)CCCCC(C)(C)c2cn(nn2)C4)cc1` (centres unmarked): the ring closure, isolated yield (triazole bond, 19-membered ring, 3 steps) is 22.5%.

In turn, “Methyl (2R)-3-[3-[21-(benzenesulfonyl)-9,9,24,30-tetrafluoro-3,6-dimethyl-)1-oxa-26-thia-3,4,15,21,32,33-hexazahexacyclo[25.3.1.12,5.112,15.017,25.018,22]tritriaconta-1(31),2(33),4,12(32),13,17,19,22,24,27,29-undecaen-6-yl]phenyl]-2-methylpropanoate” returned a ring closure, isolated yield (other bond, 19-membered ring, CMBP, toluene, 150.0 °C, 3 steps) of 11.6%.

In the case of `C#CC(C)(C)CCCCC(C)(c1cccc(CCC(=O)OC)c1)c1csc(-c2cc(Oc3c(F)cc4[nH]ccc4c3CN=[N+]=[N-])ccc2F)n1` (centres unmarked), the ring closure, isolated yield (the molecule shown is the open-chain precursor, triazole bond, 19-membered ring) is 77%.
